Assay results: ChEMBL document CHEMBL1933012, “Design and diversity-oriented synthesis of novel 1,4-thiazepan-3-ones fused with bioactive heterocyclic skeletons and evaluation of their antioxidant and cytotoxic activities” (Bioorg Med Chem Lett, 2012)

Legend:
[1] = Cytotoxicity against mouse spleen lymphocytes assessed as cell viability at 1 mg/mL after 48 hrs by MTT assay relative to control; type: tissue-based, Lymphocyte; details: read-out: Activity
[2] = system: HCT-116; assay: Growth inhibition of human HCT116 cells at 1 mg/mL after 48 hrs by MTT assay; type: functional; details: HCT-116, 48 h, read-out: GI

Structure (SMILES) | viability at 48 h, 1 mg/mL [1] [%] | inhibition of growth at 1000 µg/mL [2] [%]
O=C1CSC(c2ccc(Br)cc2)c2c(ccc3[nH]ncc23)N1 (configuration not stated) | 42.6 | 63.4
Cc1ccc(C2SCC(=O)Nc3onc(C)c32)cc1 (configuration not stated) | 103 | 64.7
Cc1nn(-c2ccccc2)c2c1C(c1ccc(Cl)cc1)SCC(=O)N2 (configuration not stated) | 82.3 | 50.2
Cc1ccc(C2SCC(=O)Nc3ccc4[nH]ncc4c32)cc1 (configuration not stated) | 20.5 | 66.8
COc1ccc(C2SCC(=O)Nc3c2c(C)nn3-c2ccccc2)cc1 (configuration not stated) | 78.8 | 57.8
O=C1CSC(c2ccc3c(c2)OCO3)c2c(ccc3[nH]ccc23)N1 (configuration not stated) | 155 | 55.9
Cc1nn(-c2ccccc2)c2c1C(c1ccccc1Cl)SCC(=O)N2 (configuration not stated) | 68.7 | 55.3
COc1ccc(C2SCC(=O)Nc3onc(C)c32)cc1OC (configuration not stated) | 165 | 54.6
CCn1c2ccccc2c2c3c(ccc21)NC(=O)CSC3c1cccs1 (configuration not stated) | 45 | 60.3
COc1ccc(C2SCC(=O)Nc3ccc4[nH]ncc4c32)cc1 (configuration not stated) | 44.8 | 61.8
Cc1nn(-c2ccccc2)c2c1C(c1ccc3c(c1)OCO3)SCC(=O)N2 (configuration not stated) | 66.9 | 51.3
COc1cc(C2SCC(=O)Nc3ccc4[nH]ncc4c32)cc(OC)c1OC (configuration not stated) | 166 | 58.2
Cc1noc2c1C(c1ccc3c(c1)OCO3)SCC(=O)N2 (configuration not stated) | 87.2 | 50.4
CCn1c2ccccc2c2c3c(ccc21)NC(=O)CSC3c1ccc(C)cc1 (configuration not stated) | 93.2 | 53.4
Cc1noc2c1C(c1ccccc1Cl)SCC(=O)N2 (configuration not stated) | 170 | 54.6
Cc1nn(-c2ccccc2)c2c1C(c1ccc(Cl)cc1Cl)SCC(=O)N2 (configuration not stated) | 156 | 53.3
Cc1ccc(C2SCC(=O)Nc3c2c(C)nn3-c2ccccc2)cc1 (configuration not stated) | 25.7 | 58.4
Cc1noc2c1C(c1cccs1)SCC(=O)N2 (configuration not stated) | 160 | 62.6
Cc1nn(-c2ccccc2)c2c1C(c1cccc([N+](=O)[O-])c1)SCC(=O)N2 (configuration not stated) | 154 | 54.3
CCn1c2ccccc2c2c3c(ccc21)NC(=O)CSC3c1ccc(OC)cc1 (configuration not stated) | 51.4 | 58.9
CCn1c2ccccc2c2c3c(ccc21)NC(=O)CSC3c1ccc(OC)c(OC)c1 (configuration not stated) | 101 | 56.2
CCn1c2ccccc2c2c3c(ccc21)NC(=O)CSC3c1ccc2c(c1)OCO2 (configuration not stated) | 158 | 51.6
COc1ccc(C2SCC(=O)Nc3onc(C)c32)cc1 (configuration not stated) | 165 | 60.3
Cc1noc2c1C(c1ccc(Br)cc1)SCC(=O)N2 (configuration not stated) | 157 | 63
CCn1c2ccccc2c2c3c(ccc21)NC(=O)CSC3c1ccc(Br)cc1 (configuration not stated) | 136 | 62
O=C1CSC(c2ccc(Cl)cc2)c2c(ccc3[nH]ncc23)N1 (configuration not stated) | 67.9 | 60.9
